We go through three compounds from US9126966B2, “Cationic lipids and methods of use thereof” (Protiva Biotherapeutics, Inc., priority 2011, dated 2015).

The structures appear in SMILES notation.

For this assay, the system named is Liver ApoB mRNA. The assay can be described thus: Liver ApoB mRNA knockdown after IV injection of LNP formulations, branched DNA assay (QuantiGene) relative to GAPDH. It is filed as in vivo, female Balb/c mice. To be noted: 1:57 LNP with ApoB siRNA; for ApoB knockdown relative PBS control / ApoB knockdown relative to PBS control: liver mRNA at 48 hours; for ApoB knockdown relative to PBS control: IV 0.033 mg/kg total siRNA, standard deviation in brackets; for ApoB-silencing activity of LNP formulations (in words): IV 0.033 mg/kg, summary of Table 3. As to the method:
LNP formulations were administered by IV injection at 0.033 mg/kg total siRNA dose into female Balb/c mice (n=3 per group). Liver ApoB mRNA levels were evaluated at 48 hours after LNP administration by a branched DNA assay (QuantiGene assay) to assess ApoB mRNA relative to the housekeeping gene GAPDH.
LNP formulations were administered by intravenous injection at doses of 0.0075, 0.015 and 0.03 mg/kg total siRNA dose into female Balb/c mice (n=3 per group). Liver ApoB mRNA levels were evaluated 48 hours after LNP administration by a branched DNA assay (QuantiGene assay) and standardized relative to the housekeeping gene GAPDH.

For the compound `CCCCC/C=C\C/C=C\CCCCCCCCC1(CCCCCCCC/C=C\C/C=C\CCCCC)OCC(CCN(C)C)O1` (centres unmarked) [Compound C2K, 2,2-dilinoleyl-4-(2-dimethylaminoethyl)[1,3]-dioxolane, reference compound], the “ApoB knockdown relative PBS control” value (IV 0.0075 mg/kg total siRNA) was −25%, the “ApoB knockdown relative PBS control” value (IV 0.015 mg/kg total siRNA) is reported as −41% and the “ApoB knockdown relative PBS control” value (IV 0.03 mg/kg total siRNA) is recorded as −54%.

On to `CCCCC/C=C\C/C=C\CCCCCCCCC1CC(CCCCCCC/C=C\C/C=C\CCCCC)OC(CCCN(C)C)O1` (centres unmarked) [Compound 9, 3-(4-((8Z,11Z)-heptadeca-8,11-dien-1-yl)-6-((9Z,12Z)-octadeca-9,12-dien-1-yl)-1,3-dioxan-2-yl)-N,N-dimethylpropan-1-amine], for which the “ApoB knockdown relative to PBS control” value is −80 (±3.3) % and the “ApoB-silencing activity of LNP formulations (in words)” value is “particularly potent ApoB-silencing activity”. The “ApoB knockdown relative PBS control” value (IV 0.0075 mg/kg total siRNA) is −39%. For the same compound, the “ApoB knockdown relative PBS control” value (IV 0.015 mg/kg total siRNA) was −51%. In addition, where the note is “IV 0.03 mg/kg total siRNA”, the “ApoB knockdown relative PBS control” value is recorded as −73%. Also, the “Potency of LNP formulations compared with reference lipid (in words)” value (IV 0.0075, 0.015 and 0.03 mg/kg, summary of Table 5) is “more potent than LNP formulations containing C2K”.

As for `CCCCC/C=C\C/C=C\CCCCCCCCC1CC(CCCCCCC/C=C\C/C=C\CCCCC)OC(CCN(C)C)O1` (centres unmarked) [Compound 8, 2-(4-((8Z,11Z)-heptadeca-8,11-dien-1-yl)-6-((9Z,12Z)-octadeca-9,12-dien-1-yl)-1,3-dioxan-2-yl)-N,N-dimethylethanamine], the “ApoB knockdown relative to PBS control” value is given as −71 (±2.7) % and the “ApoB-silencing activity of LNP formulations (in words)” value is on record as “particularly potent ApoB-silencing activity”.
